Measurements reported in PMC6297231 (Nature Communications, 2018).

Experiments:
Experiment in all cases: cells
OCILY19 = conditions: Homo sapiens, OCI-LY19, 6 h, read-out: AZD5991 6h EC50
Method: (§1) Cells were plated at 3000 cells/well in 384-well white plates in corresponding cell growth media. […] Caspase-3/7 activation was subsequently determined using a Caspase-Glo 3/7 Reagent (Promega) and viability was assayed using the CellTiter-Glo Reagent (Promega) as described in manufacturer’s instructions. Dose–response curves for caspase-3/7 activation and viability were plotted and analyzed (including EC50 and GI50 determination) using GraphPad Prism. Percentage of caspase activation was calculated against the maximum caspase activation value (100%) obtained with a proprietary cell kill control.

ARH77 = conditions: Homo sapiens, ARH-77, 6 h, read-out: AZD5991 6h EC50
Method: as §1

COLO829 = conditions: Homo sapiens, COLO-829, 6 h, read-out: AZD5991 6h EC50
Method: as §1

NCI-H929 = conditions: Homo sapiens, NCI-H929, 6 h, read-out: AZD5991 6h EC50
Method: as §1

H526 = conditions: Homo sapiens, NCI-H526, 6 h, read-out: AZD5991 6h EC50
Method: as §1

H1568 = conditions: NCI-H1568, 6 h, read-out: AZD5991 6h EC50
Method: as §1

KMS26 = conditions: KMS-26, 6 h, read-out: AZD5991 6h EC50
Method: as §1

Kasumi1 = conditions: Homo sapiens, Kasumi 1, 6 h, read-out: AZD5991 6h EC50
Method: as §1

Will2 = conditions: 6 h, read-out: AZD5991 6h EC50
Method: as §1

Bjab = conditions: Homo sapiens, 6 h, read-out: AZD5991 6h EC50
Method: as §1

LK2 = conditions: Homo sapiens, LK-2, 6 h, read-out: AZD5991 6h EC50
Method: as §1

REC1 = conditions: Homo sapiens, Rec1, 6 h, read-out: AZD5991 6h EC50
Method: as §1

H209 = conditions: Homo sapiens, NCI-H209, 6 h, read-out: AZD5991 6h EC50
Method: as §1

Z-138 = conditions: Homo sapiens, Z-138, 6 h, read-out: AZD5991 6h EC50
Method: as §1

KMS12PE = conditions: Homo sapiens, KMS-12-PE, 6 h, read-out: AZD5991 6h EC50
Method: as §1

Colo205 = conditions: Homo sapiens, COLO 205, 6 h, read-out: AZD5991 6h EC50
Method: as §1

RCK8 = conditions: Homo sapiens, RCK8, 6 h, read-out: AZD5991 6h EC50
Method: as §1

ML2 = conditions: Homo sapiens, ML-2, 6 h, read-out: AZD5991 6h EC50
Method: as §1

MCF7 = conditions: Homo sapiens, MCF7, 6 h, read-out: AZD5991 6h EC50
Method: as §1

WSUDLCL2 = conditions: Homo sapiens, WSUDLCL2, 6 h, read-out: AZD5991 6h EC50
Method: as §1

MEWO = conditions: Homo sapiens, 6 h, read-out: AZD5991 6h EC50
Method: as §1

OCIAML2 = conditions: Homo sapiens, OCI-AML2, 6 h, read-out: AZD5991 6h EC50
Method: as §1

LP1 = conditions: Homo sapiens, LP-1, 6 h, read-out: AZD5991 6h EC50
Method: as §1

MM1R = conditions: MM.1R, 6 h, read-out: AZD5991 6h EC50
Method: as §1

MM1S = conditions: Homo sapiens, MM1.S, 6 h, read-out: AZD5991 6h EC50
Method: as §1

Sudhl6 = conditions: Homo sapiens, SU-DHL-6, 6 h, read-out: AZD5991 6h EC50
Method: as §1

U2OS = conditions: Homo sapiens, 6 h, read-out: AZD5991 6h EC50
Method: as §1

KG1a = conditions: Homo sapiens, KG-1a, 6 h, read-out: AZD5991 6h EC50
Method: as §1

U2932 = conditions: Homo sapiens, U2932, 6 h, read-out: AZD5991 6h EC50
Method: as §1

OCILY10 = conditions: Homo sapiens, OCI-Ly10, 6 h, read-out: AZD5991 6h EC50
Method: as §1

H1734 = conditions: Homo sapiens, NCI-H1734, 6 h, read-out: AZD5991 6h EC50
Method: as §1

Ramos = conditions: Homo sapiens, 6 h, read-out: AZD5991 6h EC50
Method: as §1

MDAMB231 = conditions: Homo sapiens, MDA-MB-231, 6 h, read-out: AZD5991 6h EC50
Method: as §1

H146 = conditions: Homo sapiens, NCI-H146, 6 h, read-out: AZD5991 6h EC50
Method: as §1

MONOMAC6 = conditions: Homo sapiens, MONO-MAC-6, 6 h, read-out: AZD5991 6h EC50
Method: as §1

## Cc1c2c(nn1C)CSCc1cc(n(C)n1)CSc1cc(c3ccccc3c1)OCCCc1c(C(=O)O)n(C)c3c-2c(Cl)ccc13 (atropisomer, axis not shown; (Ra)) [(Ra)-7]
OCILY19
  EC50: 0.188 µM
ARH77
  EC50: 23.9 µM
COLO829
  EC50: > 30 µM
NCI-H929
  EC50: 0.06 µM
H526
  EC50: > 30 µM
H1568
  EC50: 0.3 µM
KMS26
  EC50: 0.144 µM
Kasumi1
  EC50: 0.297 µM
Will2
  EC50: 0.193 µM
Bjab
  EC50: 0.047 µM
LK2
  EC50: > 30 µM
REC1
  EC50: 2.01 µM
H209
  EC50: > 30 µM
Z-138
  EC50: > 30 µM
KMS12PE
  EC50: 0.383 µM
Colo205
  EC50: 0.121 µM
RCK8
  EC50: > 30 µM
ML2
  EC50: 0.083 µM
MCF7
  EC50: 0.313 µM
WSUDLCL2
  EC50: 0.159 µM
MEWO
  EC50: > 30 µM
OCIAML2
  EC50: 0.472 µM
LP1
  EC50: 0.249 µM
MM1R
  EC50: 0.12 µM
MM1S
  EC50: 3.6 µM
Sudhl6
  EC50: 0.056 µM
U2OS
  EC50: > 30 µM
KG1a
  EC50: 1.43 µM
U2932
  EC50: 24.2 µM
OCILY10
  EC50: 0.117 µM
H1734
  EC50: 20.1 µM
Ramos
  EC50: 0.028 µM
MDAMB231
  EC50: > 30 µM
H146
  EC50: > 30 µM
MONOMAC6
  EC50: 0.268 µM
